According to patent publication US10203322B2, “Method for identifying subjects with increased risk of ST-segment elevation myocardial infarction (STEMI) and identifying subjects likely to respond to particular treatments” (Vanderbilt University, priority 2017, dated 2019):

Columns and labels:
[1] = tested on: platelets (platelet-rich plasma); assay: Platelet phenotyping: platelet aggregation in platelet-rich plasma by light transmission aggregometry, U46,619 with or without PGE2; format: cell-based, human; conditions: PGE2 100 nmol/L preincubated with PRP, sub-maximal U46,619, aggregation recorded 6 min, n=86 (FIG. 1)
Protocol: Measurements of platelet aggregation in PRP were made using light transmission aggregometry using a Chrono-Log lumi-aggregometer (Model 460VS). The aggregometer was calibrated for each sample to read 0-10% light transmission for PRP and 90-100% light transmission for PPP. Aliquots of PRP were placed in siliconized glass cuvettes containing Teflon-coated stir bars and incubated for 2 minutes at 37° C. PRP was preincubated with or without 100 nM PGE2 for 10-20 s before adding U46,619 at various concentrations. Samples were stirred at 800 rpm throughout a 6 minute aggregation run. Experiments were completed within 2 hours of phlebotomy. Percentage aggregation was recorded with Aggrolink software (Chrono-Log) and exported to GraphPad Prism for analysis. For each subject, multiple doses of U46,619 agonist were used to construct a dose response curve according to methods described previously; each U46,619 dose was tested with and without PGE2.
In order to describe the phenotypic observation in a quantitative rather than just qualitative format a continuous variable was constructed as follows: for each dose of U46,619, the aggregation value obtained at the end of the 6 min run in the presence of PGE2 was subtracted from the value obtained without PGE2. The largest difference was reported as the maximum PGE2 effect (maximum difference). […]

[2] = tested on: platelets from an individual with the low threshold phenotype; conditions: platelets of low threshold (potentiating) phenotype treated with the EP3 antagonist; ref [6], FIG. 2; cited from earlier work

SMILES | individuals in whom PGE2 decreases the threshold of platelet activation by the thromboxane agonist U46,619 (inhibitory phenotype) [1] | individuals in whom PGE2 increases the threshold of platelet activation by the thromboxane agonist U46,619 (potentiating phenotype) [1] | shift of PGE2 response phenotype [2]
CCCCC[C@H](O)/C=C/[C@H]1[C@H](O)CC(=O)[C@@H]1C/C=C\CCCC(=O)O [PGE2, Prostaglandin E2] | 56 % of individuals | 44 % of individuals | 
Cc1cn(Cc2ccc(Cl)cc2Cl)c2c(/C=C/C(=O)NS(=O)(=O)c3cc(Cl)c(Cl)s3)cc(F)cc12 [DG-041] |  |  | the phenotype shifts to high threshold
